Measurements as given in patent US20130197077A1, “Bicyclic Furanones with Low Toxicity for Microbial Control” (priority 2012, published 2013).

Tests used:
E. coli RP437 = test system: E. coli RP437
From the text: FIG. 10 is a graph comparing the cytotoxicity of the exemplary bicyclic brominated furanones according to the present invention verses an exemplary conventional brominated furanone relative to E. Coli RP437;

3T3 mouse fibroblasts = assay: Cytotoxicity to mammalian cells, survival (%) by OD450; format: cell-based; details: 100 μM; 0 h, 24 h and 48 h recovery after removal of drugs
Description: (§1) In this test, the mammalian cells used were 3T3 mouse fibroblasts and SK-N-SH human neuroblastomas, and 0 h, 24 h, and 48 h, refer to recovery time of cells after removal of drugs. At the beginning of the experiment, the survival of the cells is assumed to be 100 percent. The survival percentage is calculated using the following formula: […]
(§2) The sample OD was obtained from the wells containing cells and drugs, and the control OD was obtained from wells containing cells+1% DMSO.

[1] = test system: SK-N-SH human neuroblastoma; assay: as above; format: cell-based; details: 100 μM; 0 h, 24 h and 48 h recovery after removal of drugs
Description: as §1, §2

In the case of CC1=C(Br)/C(=C/Br)OC1=O [BF8], the “toxicity to the growth of E. coli RP437” value (E. coli RP437) was “more toxic”, the “cytotoxicity to 3T3 mouse fibroblasts” value (3T3 mouse fibroblasts) was “cytotoxic” and the “cytotoxicity to SK-N-SH human neuroblastomas” value [1] was “cytotoxic”.
